According to PMC4767720 (Drugs in R&D, 2016):
Values belong to the molecule of their own block, whether it stands above or below them.

How the values were obtained:
[1] = Ketoconazole interaction study, plasma pharmacokinetics; assay type: in vivo, human
[2] = test system: syk; details: statement of the introduction, no reference given; cited from earlier work
[3] = Safety and tolerability assessments in the three clinical studies; assay type: in vivo, human
[4] = Verapamil interaction study, plasma pharmacokinetics; assay type: in vivo, human
[5] = Rifampicin interaction study, plasma pharmacokinetics; assay type: in vivo, human
[6] = 10 μM R406, 1 mg protein/mL, 15 min
[7] = Microsomal stability of R406 in human hepatic microsomes; assay type: in vitro ADME; details: R406 1 μM, 0.1 mg microsomal protein, NADPH 1 mM, 37 °C, pH 7.4
[8] = R406, 150 mg fostamatinib alone (P1), n=15
[9] = R406 in plasma, single oral 150 mg fostamatinib alone (P1), n=15
[10] = R406, 80 mg fostamatinib + ketoconazole (P2), n=8
[11] = R406, 80 mg fostamatinib alone (P1), n=8
[12] = R406, 80 mg fostamatinib, ketoconazole 200 mg twice daily
[13] = R406 in plasma, single oral 80 mg fostamatinib alone (P1), n=8
[14] = R406, 150 mg fostamatinib + rifampicin (P2), n=15

SMILES: COc1cc(Nc2ncc(F)c(Nc3ccc4c(n3)N(COP(=O)(O)O)C(=O)C(C)(C)O4)n2)cc(OC)c1OC [Fostamatinib]
plasma levels of R788 ([1]; 80 mg fostamatinib with ketoconazole-placebo or with ketoconazole): negligible
highest plasma concentration of R788 obtained in any subject ([1]; 80 mg fostamatinib with placebo or ketoconazole): < 7 ng/mL
time post-dose beyond which no quantifiable R788 (above 0.5 ng/mL) was obtained ([1]; any subject): 2 h
activity against syk compared with R406 [2]: much less active
tolerability ([3]; all three clinical studies, alone and in combination with a CYP3A4 inducer/inhibitor): well tolerated
deaths, serious AEs, withdrawals due to AEs, severe AEs ([3]; any of the three studies): no deaths, serious AEs, withdrawals due to AEs or severe AEs
treatment-emergent AEs in subjects receiving fostamatinib and ketoconazole ([3]; ketoconazole interaction study): No treatment-emergent AEs
total AEs reported ([3]; ketoconazole interaction study, all treatments, N=8): eight
total AEs recorded ([3]; rifampicin interaction study, all arms, all mild): four
AEs considered related to administration of fostamatinib ([3]; verapamil interaction study): None
total AEs reported ([3]; verapamil interaction study, one AE per treatment arm, one mild, two moderate): three

effect of verapamil co-administration on R406 Cmax ([4]; 150 mg fostamatinib): no consistent effect
effect of verapamil on R406 tmax ([4]; 150 mg fostamatinib): no consistent effect
subjects with higher R406 AUC after verapamil co-administration ([4]; 150 mg fostamatinib, verapamil 80 mg three times daily): 10 of the 13
t½, geometric mean (GCV %) ([4]; R406, 150 mg fostamatinib + verapamil (P2), n=13): 19.1 (51.1) h
tmax, median ([4]; R406, 150 mg fostamatinib + verapamil (P2), n=14): 1.50 h
tmax, median [4, 8]: 1.48 h
t½, geometric mean (GCV %) [4, 8]: 13.5 (28.4) h
AUC0–∞, geometric mean (GCV %) [4, 9]: 6380 (36.1) ng·h/mL
Cmax, geometric mean (GCV %) [4, 9]: 588 (45.7) ng/mL
increase in R406 exposure with ketoconazole co-administration ([1]; 80 mg fostamatinib, ketoconazole 200 mg twice daily): 2 fold
tmax, median [1, 10]: 2.00 h
t½, geometric mean (GCV %) [1, 10]: 17.7 (31.9) h
tmax, median [1, 11]: 1.25 h
t½, geometric mean (GCV %) [1, 11]: 13.6 (32.1) h
average increase in AUC0–∞ after co-administration of ketoconazole [1, 12]: 102%
average increase in Cmax after co-administration of ketoconazole [1, 12]: 37%
average t½ ([1]; R406, fostamatinib alone): 14.2 h
tmax (value of the text, not the median) ([1]; R406, fostamatinib plus ketoconazole): 1.69 h
average t½ ([1]; R406, fostamatinib with ketoconazole co-administration): 18.4 h
AUC0–∞, geometric mean (GCV %) [1, 13]: 3690 (19.9) ng·h/mL
Cmax, geometric mean (GCV %) [1, 13]: 325 (13.7) ng/mL
reduction in R406 Cmax with rifampicin co-administration ([5]; 150 mg fostamatinib, rifampicin 600 mg once daily): ~60%
effect of rifampicin co-administration on tmax ([5]; R406, 150 mg fostamatinib): no consistent effect
tmax, median [5, 14]: 1.00 h
t½, geometric mean (GCV %) [5, 14]: 10.8 (38.6) h
tmax, median [5, 8]: 2.00 h
t½, geometric mean (GCV %) [5, 8]: 15.0 (30.3) h
AUC0–∞, geometric mean (GCV %) [5, 9]: 6540 (48.5) ng·h/mL
Cmax, geometric mean (GCV %) [5, 9]: 573 (58.7) ng/mL
major metabolite [6]: para-O-demethylated R406, R529
microsomal half-life [7]: 0.407 h
SMILES: COc1cc(Nc2ncc(F)c(Nc3ccc4c(n3)NC(=O)C(C)(C)O4)n2)cc(OC)c1OC [R406]

SMILES: COc1cc(Nc2ncc(F)c(Nc3ccc4c(n3)NC(=O)C(C)(C)O4)n2)cc(OC)c1O [R529]
activity against syk compared with R406 [2]: much less active
